# Assay results reported in patent US11851428B2, “Activator of TREK (TWIK RElated K+channels) channels” (ONO PHARMACEUTICAL CO., LTD., priority 2016, dated 2023).
# Where two headings read alike, the source gives them in different places.
# Target: T1, human TREK-1 (Homo sapiens, UniProt O95069)
# T1 construct: expressed in transfected cells
# T1 sequence (O95069 1-426): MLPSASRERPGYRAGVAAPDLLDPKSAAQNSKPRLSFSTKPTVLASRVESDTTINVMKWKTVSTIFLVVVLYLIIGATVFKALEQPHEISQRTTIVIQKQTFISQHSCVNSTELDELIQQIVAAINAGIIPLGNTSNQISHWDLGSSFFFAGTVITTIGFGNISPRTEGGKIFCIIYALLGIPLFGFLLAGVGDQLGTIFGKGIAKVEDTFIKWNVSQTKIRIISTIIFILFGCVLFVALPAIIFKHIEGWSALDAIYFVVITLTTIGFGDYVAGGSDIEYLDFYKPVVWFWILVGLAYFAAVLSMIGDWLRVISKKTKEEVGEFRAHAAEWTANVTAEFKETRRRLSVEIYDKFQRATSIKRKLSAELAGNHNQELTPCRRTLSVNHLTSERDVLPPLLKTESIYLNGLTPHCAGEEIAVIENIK
# Assay: thallium flux assay (TREK1 activation normalized to BL-1249)
# Format: cell-based
# Procedure: The term “thallium flux assay” herein refers to a fluorescence-based assay used to monitor the activity of TREK channels. Thallium is a congener of potassium that readily fluxes through the pore of TREK channels. Thallium flux is measured using a commercially available, thallium-sensitive fluorescent dye called Thallos. The detail method is described below.
# Method 1 (Thallium Flux Assay);
# CHO-K1 cells stably expressing human TREK-1 or HEK293 cells stably expressing human TREK-2 are plated in 384-well plates, cultured overnight, loaded with Thallos dye the following day, treated with test compounds for 10 min, and then treated with thallium stimulus buffer to initiate thallium flux. The change in fluorescence at 25 seconds after thallium addition is normalized to baseline fluorescence (fluorescent intensity at 25 sec after Tl^+ addition)/(average of fluorescent intensity at pre-read).
# [1] = concentration of Example compound 10 μM, normalized to 10 μM BL-1249, CHO-K1 cells stably expressing human TREK-1, read-out: TREK1 activation RBL-1249 (%)
# [2] = concentration of Example compound 30 μM, normalized to 10 μM BL-1249, CHO-K1 cells stably expressing human TREK-1, read-out: TREK1 activation RBL-1249 (%)
# [3] = CHO-K1, read-out: TREK1 activation RBL-1249 (%)
# [4] = concentration of Example compound 10 μM, normalized to 10 μM BL-1249, CHO-K1 cells stably expressing human TREK-1
activation at 10 µM [1] [%],Structure (SMILES),also measured
75,"O=C(NCc1ccc(OC(F)(F)F)c(F)c1)c1cc2ncccn2n1 [Example 1-52, N-[3-fluoro-4-(trifluoromethoxy)benzyl]pyrazolo[1,5-a]pyrimidine-2-carboxamide]",–
33,"O=C(NCc1ccc(OC(F)(F)F)cc1)c1cnc(C(F)(F)F)nc1 [Example 1-34, N-[4-(trifluoromethoxy)benzyl]-2-(trifluoromethyl)-5-pyrimidinecarboxamide]",–
63,"O=C(NCc1ccc(C(F)(F)F)cc1Cl)c1cc2ncccn2n1 [Example 1-47, N-(2-chloro-4-(trifluoromethyl)benzyl]pyrazolo[1,5-a]pyrimidine-2-carboxamide]",–
–,"CS(=O)(=O)N1CCOc2cc(C(=O)NCc3ccc(Br)cc3Cl)ccc21 [Example 3-10, N-(4-bromo-2-chlorobenzyl)-4-(methylsulfonyl)-3,4-dihydro-2H-1,4-benzoxazine-7-carboxamide]",activation at 30 µM [2]: 34%
–,"O=C(NCc1ccc(OC(F)(F)F)cc1)c1nc(-c2ccccn2)cs1 [Example 2-32, 4-(2-pyridinyl)-N-[4-(trifluoromethoxy)benzyl]-1,3-thiazole-2-carboxamide]",activation at 30 µM [2]: 38%
26,"O=C(NCc1ccc(OC(F)(F)F)cc1)c1ccc2nccnc2c1 [Example 1-36, N-[4-(trifluoromethoxy)benzyl]-6-quinoxalinecarboxamide]",–
–,"CS(=O)(=O)Nc1ccc(C(=O)NCc2ccc(Cl)cc2Cl)cc1 [N-(2,4-dichlorobenzyl)-4-[(methylsulfonyl)amino]benzamide]",activation at 30 µM [3]: 54%
–,"COc1cc(OC(F)(F)F)ccc1CNC(=O)c1ccc(NS(C)(=O)=O)nc1 [Example 8-2, N-[2-methoxy-4-(trifluoromethoxy)benzyl]-6-[(methylsulfonyl)amino]nicotinamide]",activation at 30 µM [2]: 48%
–,"O=C(NCc1ccc(OC(F)(F)F)cc1)c1ccc2[nH]cnc2c1 [Example 1-72, N-[4-(trifluoromethoxy)benzyl]-1H-benzimidazole-5-carboxamide]",activation at 30 µM [2]: 60%
72,"Cc1cc(OC(F)(F)F)ccc1CNC(=O)c1ccn2ccnc2c1 [Example 1-87, N-[[2-methyl-4-(trifluoromethoxy)phenyl]methyl]imidazo[1,2-a]pyridine-7-carboxamide]",–
26,"O=C(NCc1ccc(Cl)cc1Cl)c1ccc2[nH]ncc2c1 [Example 1-6, N-(2,4-dichlorobenzyl)-1H-indazole-5-carboxamide]",–
95,"O=C(NCc1ccc(OC(F)(F)F)cc1Cl)c1ccc2nnnn2c1 [Example 9-16, N-[2-chloro-4-(trifluoromethoxy)benzyl]tetrazolo[1,5-a]pyridine-6-carboxamide]",–
–,O=C(NCc1ccc(Br)cc1Cl)c1ccc2ncnn2c1 [Example 1-28],TREK1 activation RBL-1249 (%) [4]: 99%
44,"O=C(NCc1ccc(Cl)cc1Cl)c1ccc2ncnn2c1 [Example 1-5, N-(2,4-dichlorobenzyl)[1,2,4]triazolo[1,5-a]pyridine-6-carboxamide]",–
–,"O=C(NCc1ccc(OC(F)(F)F)cc1)c1cn[nH]c(=O)c1 [Example 1-42, 6-oxo-N-[4-(trifluoromethoxy)benzyl]-1,6-dihydro-4-pyridazinecarboxamide]",activation at 30 µM [2]: 41%
–,"Cc1cc(OC(F)(F)F)ccc1CNC(=O)c1cc(F)nc(F)c1 [Example 1-55, 2-6-difluoro-N-[2-methyl-4-(trifluorothoxy)benzyl]isonicotinamide]","TREK1 activation RBL-1249 (%) (concentration of Example compound 30 μM, normalized to 10 μM BL-1249, CHO-K1 cells stably expressing human TREK-1): 38%"
101,"O=C(NCc1ccc(Br)cc1Cl)c1ccc2[nH]nnc2c1 [Example 1-76, N-[(4-bromo-2-chlorophenyl)methyl]-1H-benzotriazole-5-carboxamide]",–
28,"O=C(NCc1ccc(OC(F)(F)F)cc1)c1ccn2cnnc2c1 [Example 1-3, N-[4-(trifluoromethoxy)benzyl][1,2,4]triazolo(4,3-a]pyridine-7-carboxamide]",–
46,"O=C(NCc1ccc(OC(F)(F)F)cc1F)c1ccc(-n2cncn2)cc1 [Example 2-16, N-[2-fluoro-4-(trifluoromethoxy)benzyl]-4-(1H-1,2,4-triazol-1-yl)benzamide]",–

activation at 10 µM [1] [%],Structure (SMILES),also measured
42,"COc1cc(OC(F)(F)F)ccc1CNC(=O)c1ccc(-n2cncn2)nc1 [Example 2-30, N-[2-methoxy-4-(trifluoromethoxy)benzyl]-6-(1H-1,2,4-triazol-1-yl)nicotinamide]",–
80,"Cc1cc(OC(F)(F)F)ccc1CNC(=O)c1ccc(-c2ncn[nH]2)cc1 [Example 2-34, N-[2-methyl-4-(trifluoromethoxy)benzyl]-4-(1H-1,2,4-triazol-5-yl)benzamide]",–
89,"Cc1cc(OC(F)(F)F)ccc1CNC(=O)c1ccn2c(C)nnc2c1 [Example 3-5, 3-methyl-N-[2-methyl-4-(trifluoromethoxy)benzyl][1,2,4]triazolo[4,3-a]pyridine-7-carboxamide]",–
59,"O=C(NCc1ccc(OC(F)(F)F)cc1Cl)c1ccc(-c2ncc[nH]2)cc1 [Example 9-15, N-[2-chloro-4-(trifluoromethoxy)benzyl]-4-(1H-imidazol-2-yl)benzamide]",–
41,"O=C(NCc1ccc(S(F)(F)(F)(F)F)cc1)c1ccc(-n2cncn2)cc1 [Example 2-2, N-[4-(pentafluoro-λ^6-sulfanyl)benzyl]-4-(1H-1,2,4-triazol-1-yl)benzamide]",–
–,"O=C(NCc1ccc(OC(F)(F)F)cc1)c1nc2ncccn2n1 [Example 1-44, N-[4-(trifluoromethoxy)benzyl][1,2,4]triazolo[1,5-a]pyrimidine-2-carboxamide]",activation at 30 µM [2]: 25%
46,"O=C(NCc1ccc(OC(F)(F)F)cc1)c1ccc(-c2cnc[nH]2)cc1 [Example 2-10, 4-(1H-imidazol-5-yl)-N-[4-(trifluoromethoxy)benzyl]benzamide]",–
89,"Cc1nc2ccc(C(=O)NCc3ccc(OC(F)(F)F)cc3C)cn2n1 [Example 3-4, 2-methyl-N-[2-methyl-4-(trifluoromethoxy)benzyl][1,2,4]triazolo[1,5-a]pyridine-6-carboxamide]",–
–,"COc1cc(OC(F)(F)F)ccc1CNC(=O)c1ccn2cnnc2c1 [Example 1-30, N-[2-methoxy-4-(trifluoromethoxy)benzyl][1,2,4]triazolo[4,3-a]pyridine-7-carboxamide]",activation at 30 µM [2]: 76%
32,"O=C(NCc1ccc(OC(F)(F)F)cc1)c1ccc(-c2cnco2)cc1 [Example 2-6, 4-(1,3-oxazol-5-yl)-N-[4-(trifluoromethoxy)benzyl]benzamide]",–
69,"O=C(NCc1ccc(OC(F)(F)F)cc1F)c1ccc(-c2ncn[nH]2)cc1 [Example 2-24, N-[2-fluoro-4-(trifluoromethoxy)benzyl]-4-(1H-1,2,4-triazol-5-yl)benzamide]",–
–,"O=C(Cc1ccc(OC(F)(F)F)cc1F)Nc1ccc2ncnn2c1 [Example 6, 2-[2-Fluoro-4-(trifluoromethoxy)phenyl]-N-([1,2,4]triazolo[1,5-a]pyridin-6-yl)acetamide]",activation at 30 µM [2]: 19%
85,"Cc1cc(OC(F)(F)F)ccc1CNC(=O)c1ccn2cnnc2c1 [Example 1-45, N-[2-methyl-4-(trifluoromethoxy)benzyl][1,2,4]triazolo[4,3-a]pyridine-7-carboxamide]",–
88,"Cc1cc(OC(F)(F)F)ccc1CNC(=O)c1ccc2ncnn2c1 [Example 1, N-[2-Methyl-4-(trifluoromethoxy)benzyl]-[1,2,4]triazolo[1,5-a]pyridine-6-carboxamide]",–
29,"O=C(NCc1ccc(OC(F)(F)F)cc1)c1ccc(-c2nnco2)cc1 [Example 2-12, 4-(1,3,4-oxadiazol-2-yl)-N-[4-(trifluoromethoxy)benzyl]benzamide]",–
–,"O=C(NCc1ccc(OC(F)(F)F)cc1Cl)c1ccc2ncnn2c1 [Example 9-2, N-[[2-chloro-4-(trifluoromethoxy)phenyl]methyl]-[1,2,4]triazolo[1,5-a]pyridine-6-carboxamide]",activation at 10 µM [3]: 106%
–,COc1cc(OC(F)(F)F)ccc1CNC(=O)c1ccc(-c2ccccn2)nc1 [Example 2-29],TREK1 activation RBL-1249 (%) [4]: 51%
125,"O=C(NCc1ccc(OC(F)(F)F)cc1Cl)c1ccc2[nH]nnc2c1 [Example 9-7, N-[[2-chloro-4-(trifluoromethoxy)phenyl]methyl]-1H-benzotriazole-5-carboxamide]",–
54,"COc1cc(OC(F)(F)F)ccc1CNC(=O)c1ccc(-n2cncn2)cc1 [Example 2-1, N-[2-methoxy-4-(trifluoromethoxy)benzyl]-4-(1H-1,2,4-triazol-1-yl)benzamide]",–
